US20260158056A1, “USE OF LOW MOLECULAR WEIGHT HYALURONIC ACID FOR THE TREATMENT OF LUNG MUCOSAL INFLAMMATION” (INSTITUT NATIONAL DE LA SANTÉ ET DE LA RECHERCHE MÉDICALE, priority 2021, published 2026)

Experiments:
Type in all cases: cell-based
[1] = system: IL-8 secreted by F508del/F508del CF human airway epithelial cells; assay: IL-8 ELISA, CF airway epithelial cell monolayers, Cytomix 24 h then Cytomix + treatment 24 h (curative); details: FIG. 2, 5; curative: Cytomix 24 h, then Cytomix + HA 1 mg/mL or Dexa 10^-6M 24 h; n=7 CF patients
Procedure: FIG. 2: Measurement by ELISA assay of the pro-inflammatory chemokine IL-8 secreted by F508del/F508del CF human airway epithelial cells cultured as monolayers. Airway epithelial cells were seeded in 48-wells plates and cultured until confluence was reached. Cells were then treated for 24 h with a pro-inflammatory chemokine cocktail (TNFα, IL1β and IFNγ; 10 ng/mL each) called Cytomix (Cy). Cells were thereafter treated with a combo containing Cytomix and the anti-inflammatory dexamethasone (Dexa; 10^-6M), or 15-45 kDa sodium-hyaluronic acid (HA-Na 15-45 kDa) (ARD—Pomacle—France—as prepared according to WO2004050187), 15-30 kDa sodium-hyaluronic acid (HA-Na 15-30 kDa) (Sigma Aldrich), or 30-50 kDa sodium-hyaluronic acid (HA-Na 30-50 kDa) (Sigma Aldrich) at 1 mg/mL during the following 24 h. The culture medium was finally collected and the IL-8 content was determined by ELISA assay. n=7 different F508del/F508del CF patients. p<0.001 (***); p<0.01 (**); p<0.05 (*).ns: non-significant.
FIG. 5: Measurement by ELISA assay of the pro-inflammatory chemokine IL-8 secreted by F508del/F508del CF human airway epithelial cells cultured as monolayers. Airway epithelial cells were seeded in 48-wells plates and cultured until confluence was reached. Cells were then treated for 24 h with a pro-inflammatory chemokine cocktail (TNFα, IL1β and IFNγ; 10 ng/ml each) called Cytomix (Cy). Cells were thereafter treated with a combo containing Cytomix and the anti-inflammatory dexamethasone (Dexa; 10^-6M), or 15-45 kDa sodium-hyaluronic acid (HA-Na 15-45 kDa) (ARD—Pomacle—France—as prepared according to WO2004050187), 15-45 kDa calcium-hyaluronic acid (HA-Ca 15-45 kDa; ARD), or 15-45 kDa potassium-hyaluronic acid (HA-K 15-45 kDa; ARD) at 1 mg/mL during the following 24 h. The culture medium was finally collected and the IL-8 content was determined. n=7 different F508del/F508del CF patients. p<0.001 (***); p<0.01 (**); p<0.05 (*). ns: non-significant.

[2] = system: IL-8 secreted by human COPD airway epithelial cells; assay: IL-8 ELISA, COPD airway epithelial cell monolayers, Cytomix + treatment 24 h (co-treatment); details: FIG. 18, 20; co-treatment: Cytomix + HA 1 mg/mL or Dexa 10^-6M 24 h; n=5 COPD patients
Procedure: FIG. 18: Measurement by ELISA assay of the pro-inflammatory chemokine IL-8 secreted by human COPD airway epithelial cells cultured as monolayers. Airway epithelial cells were seeded in 48-wells plates and cultured until confluence was reached. Cells were then treated for 24 h with a combo containing a pro-inflammatory chemokine cocktail (TNFα, IL1β and IFNγ 10 ng/mL each) called Cytomix (Cy) and the anti-inflammatory dexamethasone (Dexa; 10^-6M), 15-45 kDa sodium-hyaluronic acid (HA-Na 15-45 kDa) (ARD—Pomacle—France—as prepared according to WO2004050187), 15-30 kDa sodium-hyaluronic acid (HA-Na 15-30 kDa) (Sigma Aldrich), or 30-50 kDa sodium-hyaluronic acid (HA-Na 30-50 kDa) (Sigma Aldrich) at 1 mg/mL. The culture medium was then collected and the IL-8 content was determined. n=5 COPD patient. p<0.001 (***); p<0.01 (**); p<0.05 (*). ns: non-significant.
FIG. 20: Measurement by ELISA assay of the pro-inflammatory chemokine IL-8 secreted by human COPD airway epithelial cells cultured as monolayers. Airway epithelial cells were seeded in 48-wells plates and cultured until confluence was reached. Cells were then treated for 24 h with a combo containing a pro-inflammatory chemokine cocktail (TNFα, IL1β and IFNγ 10 ng/ml each) called Cytomix (Cy) and the anti-inflammatory dexamethasone (Dexa; 10^-6M), 15-45 kDa sodium-hyaluronic acid (HA-Na 15-45 kDa) (ARD—Pomacle—France—as prepared according to WO2004050187), 15-45 kDa calcium-hyaluronic acid (HA-Ca 15-45 kDa; ARD), or 15-45 kDa potassium hyaluronic acid (HA-K 15-45 kDa; ARD) at 1 mg/mL. The culture medium was then collected and the IL-8 content was determined. n=5 different COPD patients. p<0.001 (***); p<0.01 (**); p<0.05 (*). ns: non-significant.

[3] = system: IL-8 secreted by F508del/F508del CF human airway epithelial cells; assay: IL-8 ELISA, CF airway epithelial cell monolayers, Cytomix + treatment 24 h (co-treatment); details: FIG. 3, 6; co-treatment: Cytomix + HA 1 mg/mL or Dexa 10^-6M 24 h; n=7 CF patients
Procedure: FIG. 3: Measurement by ELISA assay of the pro-inflammatory chemokine IL-8 secreted by F508del/F508del CF human airway epithelial cells cultured as monolayers. Airway epithelial cells were seeded in 48-wells plates and cultured until confluence was reached. Cells were then treated for 24 h with a combo containing a pro-inflammatory chemokine cocktail (TNFα, IL1β and IFNγ; 10 ng/mL each) called Cytomix (Cy) and the anti-inflammatory dexamethasone (Dexa; 10^-6M), 15-45 kDa sodium-hyaluronic acid (HA-Na 15-45 kDa) (ARD—Pomacle—France—as prepared according to WO2004050187), 15-30 kDa sodium-hyaluronic acid (HA-Na 15-30 kDa) (Sigma Aldrich), or 30-50 kDa sodium-hyaluronic acid (HA-Na 30-50 kDa) (Sigma Aldrich) at 1 mg/mL. The culture medium was then collected and the IL-8 content was determined. n=7 F508del/F508del CF patient. p<0.001 (***); p<0.01 (**); p<0.05 (*). ns: non-significant.
FIG. 6: Measurement by ELISA assay of the pro-inflammatory chemokine IL-8 secreted by F508del/F508del CF human airway epithelial cells cultured as monolayers. Airway epithelial cells were seeded in 48-wells plates and cultured until confluence was reached. Cells were then treated for 24 h with a combo containing a pro-inflammatory chemokine cocktail (TNFα, IL1β and IFNγ 10 ng/mL each) called Cytomix (Cy) and the anti-inflammatory dexamethasone (Dexa; 10^-6M), or 15-45 kDa sodium-hyaluronic acid (HA-Na 15-45 kDa) (ARD—Pomacle—France—as prepared according to WO2004050187), 15-45 kDa calcium-hyaluronic acid (HA-Ca 15-45 kDa; ARD), or 15-45 kDa potassium-hyaluronic acid (HA-K 15-45 kDa; ARD) at 1 mg/mL. The culture medium was then collected and the IL-8 content was determined. n=7 different F508del/F508del CF patients. p<0.001 (***); p<0.01 (**); p<0.05 (*). ns: non-significant.

Question: How did the “decrease in IL-8 secretion” value [1] turn out when “15-30 kDa sodium-hyaluronic acid [HA-Na 15-30 kDa]” was run?
Answer: 44.2%

Question: What about the “decrease in IL-8 secretion” value [2] of the same compound?
Answer: 43.1%

Question: And the “decrease in IL-8 secretion” value [3]?
Answer: 40.2%

Question: “15-45 kDa calcium-hyaluronic acid [HA-Ca 15-45 kDa]” was tested. Which “decrease in IL-8 secretion” value [1] did it give?
Answer: 33.6%

Question: And the “decrease in IL-8 secretion” value [2]?
Answer: 12.9%

Question: And the “decrease in IL-8 secretion” value [3]?
Answer: 11.6%

Question: Which results are given for “15-45 kDa potassium-hyaluronic acid [HA-K 15-45 kDa]”?
Answer: decrease in IL-8 secretion [1]: 47.5%; decrease in IL-8 secretion [2]: 27.5%; decrease in IL-8 secretion [3]: 30%

Question: “15-45 kDa sodium-hyaluronic acid [HA-Na 15-45 kDa]” was tested. Which “decrease in IL-8 secretion” value [1] did it give?
Answer: 32.1%

Question: And the “decrease in IL-8 secretion” value [2]?
Answer: 33.4%

Question: What about the “decrease in IL-8 secretion” value [3] of the same compound?
Answer: 33.9%

Question: What does the source list for “30-50 kDa sodium-hyaluronic acid [HA-Na 30-50 kDa]”?
Answer: decrease in IL-8 secretion [1]: 42.2%; decrease in IL-8 secretion [2]: 30.8%; decrease in IL-8 secretion [3]: 30.1%

Question: Which results are given for `C[C@@H]1C[C@H]2[C@@H]3CCC4=CC(=O)C=C[C@]4(C)[C@@]3(F)[C@@H](O)C[C@]2(C)[C@@]1(O)C(=O)CO` [Dexamethasone, dexamethasone, reference compound]?
Answer: decrease in IL-8 secretion [1]: 30.9%; decrease in IL-8 secretion [2]: 32.1%; decrease in IL-8 secretion [3]: 21.4%
